What was measured:
Assay type in all cases: tissue-based
Conditions in all cases: Muscle tissue
[1] = Selectivity ratio of Km/ki for rabbit muscle […] Fba to Km/ki for Candida albicans zinc dependent class 2 Fba
[2] = Selectivity ratio of Km/ki for rabbit muscle […] Fba to Km/ki for Mycobacterium tuberculosis zinc dependent class 2 Fba
[3] = Selectivity ratio of Km/ki for rabbit muscle […] Fba to Km/ki for Helicobacter pylori recombinant zinc dependent class 2 Fba

| Compound | Ratio [1] | Ratio [2] | Ratio [3] |
| --- | --- | --- | --- |
| O=C(COP(=O)(O)O)N(O)CCCO | 34000 | 20000 | 600 |
| CCCCCCCCCCCC(=O)OCCCCN(O)C(=O)COP(=O)(O)O | 475 | 305 | 19 |
| O=C(COP(=O)(O)O)N(O)CCCOP(=O)(O)O | 7500 | 28000 | 23000 |

Source: ChEMBL document CHEMBL1275330, “Rational design, synthesis, and evaluation of new selective inhibitors of microbial class II (zinc dependent) fructose bis-phosphate aldolases” (J Med Chem, 2010)
